The values that follow come from patent publication US11045435B2, “Methods for treating ocular diseases” (NATUREWISE BIOTECH & MEDICALS CORPORATION, priority 2016, dated 2021).

Each structure is given as a SMILES string.

Experiment [1] has as its system ARPE-19 cells. Nature of the experiment: NaIO3-induced injury in ARPE-19 cells (MTT). Format: cell-based, human. The settings on record: 10 μg/ml; 72 h. On the procedure: (§1) MTT assay was used to measure the viability of ARPE-19 cells and HUVECs. 2×10^5 ARPE-19 cells or 5×10^4 HUVECs were seeded in 96-well plates ([…]) and allowed to grow overnight. Negative control was prepared by adding 100 μl medium without cells. The cells were then treated with fresh medium with COMPOUND I (0.03, 0.1, 0.3, 1, 3 and 10 μg/ml) and/or oxidants (NaIO3, H2O2, t-BHP and NaN3) for 12, 24, or 72 hours (200 μl/well). The vehicle control group was treated with vehicle. 20 μl MTT (5 mg/ml) was added to wells, and incubated for another 4 h. After incubation, the medium was discarded and 100 μl DMSO was added to solubilize formazan produced from MTT by the viable cells. Absorbance was measured at 570 nm using a microplate reader (Bio-Rad Laboratories, Inc., CA). Cells viability was calculated according to the following formula: Viability of cells (%)=(absorbance in tested sample−absorbance in negative control)/(absorbance in vehicle control−absorbance in negative control)×100%.

In experiment [2] the test system is GFAP mRNA. Nature of the experiment: Gene expression of GFAP in retina, quantitative real-time PCR, streptozotocin-induced diabetic retinopathy. Type of experiment: in vivo, Sprague-Dawley female rats. On the procedure: After a 16-hour fasting, Sprague-Dawley female rats weighing 200-220 g received a single 60 mg/kg intraperitoneal injection of Streptozotocin (STZ; Sigma-Aldrich, St. Louis, Md.) in 10 mM sodium citrate buffer (pH 4.5; Sigma-Aldrich, St. Louis, Md.). Control rats were fasted and received the buffer solution alone. Rats with blood glucose levels higher than 375 mg/dL 7 days after receiving STZ were considered to be diabetic. Diabetic rats were treated with 1% COMPOUND I, 0.5% COMPOUND I or vehicle eye drops 3 time a day for 6 weeks.
After rat were sacrificed as described previously, the eyes were enucleated and bisected, and the retinas were peeled from the eyecups and immediately homogenized in RNA isolation agent (RNeasy®Plus Mini Kit, Qiagen, Valencia, Calif.). The first-strand cDNA was prepared from the mRNA by using the commercial kit in accordance with the manufacturer's protocol (High-capacity reverse transcription kits, AB life technologies, Austin, Tex.). Real-time PCR was performed in 96-well plates using standard protocols with a fluorescent detection dye (SYBRR Green PCR Master Mix, AB life technologies, Austin, Tex.) in a real-time detection system (iCycler. Bio-Rad). All PCR reactions were a final volume of 20 μl comprised of fluorescent dye/PCR mix, final concentration 0.2 μM forward and reverse primers, and 1 ng of cDNA. The PCR cycle parameters were as follows: polymerase activation for 15 minutes at 90° C., 40 cycles of 95° C. for 15 seconds, 60° C. for 30 seconds and 72° C. for 1 minute. The quantity of mRNA was calculated by normalizing the CT of the β-actin housekeeping gene in the same sample, according to the following formula: The average β-actin CT (each multiplex PCR was performed in triplicate) was subtracted from the average target gene CT; the results represented the ΔCT. This ΔCT is specific and can be compared with the ΔCT of a calibration sample. The subtraction of control ΔCT from the ΔCT of the target gene is referred ΔΔCT. The relative quantification of expression of a target gene (in comparison with control) was determined by using 2^−ΔΔCT.
(In general: Real-time PCR tracks product formation cycle by cycle.)

The test system of experiment [3] is HUVECs. Nature of the experiment: NaIO3-induced injury in HUVECs (MTT). The settings on record: 72 h. Type of experiment: cell-based, human. On the procedure: as §1
Experiment [4] deals with ARPE-19 cells. Nature of the experiment: NaN3-induced injury in ARPE-19 cells (MTT). Format: cell-based, human. As to conditions: 72 h. On the procedure: as §1
The test system of experiment [5] is mouse model of CNV. Nature of the experiment: Laser-induced CNV mouse model (FP, FFA, OCT). Format: in vivo, C57BL/6J mice. How it is done: Male C57BL/6J mice (BioLASCO Taiwan Co.) were maintained within the Animal Center at Taipei Medical University (TMU) and the CNV study was performed in accordance with ARVO statement and the experimental protocols were approved by the Institutional Animal Care and Use Committee of TMU (LAC-2017-0130). To create CNV, mice were anesthetized by injection of Balanzine (10% xylazine) (10 mg/kg) and Ketamine (80 mg/kg). The rupture of Bruch's membrane-choroid was achieved by laser photocoagulation (Micron III system, Phoenix Research Laboratories, Pleasanton, Calif.) using CNV laser burns of four spots (0.1-second duration, 250 mW) approximately two disc-diameters away from the optic disc. […]
The OCT module of the Micron III (Phoenix Research Laboratories, Pleasanton, Calif.) retinal imaging microscope was used to obtain images from retinal layers. […] Three retinal layers were defined and measured in the C57BL/6 mice included in this study: the inner layer, which comprises the retinal nerve fiber layer (RNFL), the ganglion cell layer (GCL), and the inner plexiform layer (IPL); the middle layer, which comprises the inner nuclear layer (INL), the outer plexiform layer (OPL), the outer nuclear layer (ONL), and the outer limiting membrane (OLM); and the outer layer, which comprises the inner and outer segments (IS/OS) of the photoreceptors and the retinal pigment epithelium.

Experiment [6] has as its system VEGF. Nature of the experiment: VEGF levels in retina, Western Blot, streptozotocin-induced diabetic retinopathy. Format: in vivo, Sprague-Dawley female rats. In general terms: Immunoblotting shows a protein as a band on a membrane.
Experiment [7] deals with HUVECs. Nature of the experiment: H2O2-induced injury in HUVECs (MTT). Type of experiment: cell-based, human. The settings on record: 10 μg/ml, 24 h. On the procedure:
as §1

Consider `COc1ccc(COc2c(/C=C/C(=O)NO)ccc(OC)c2CC=C(C)C)cc1` [COMPOUND I], for which the “effect on viability in NaIO3-induced injury” value in experiment [1] and in experiment [3] (10 μg/ml) was “significantly enhanced the viability” throughout. Further, the “GFAP gene expression vs diabetic control group, in words” value in experiment [2] (0.5% and 1%) is given as “significantly down-regulated”. Further, the “mRNA expression of GFAP, DR animals as 100%” value amounted to 60% in experiment [2] (0.5% eye drops tid 6 weeks) and 51% in experiment [2] (1% eye drops tid 6 weeks). In addition, the “effect on 300 μg/ml NaIO3-induced injury” value in experiment [3] (0.03 μg/ml to 1 μg/ml, 300 μg/ml NaIO3) is listed as “reversed”. In addition, in experiment [4], the “effect on NaN3-induced injury” value is listed as “significantly reversed”. The “leaky area (FFA)” value in experiment [5] (25 mg/kg/d oral for 7 or 28 days) is “significantly reduced”. Besides, the “tissue hyperplasia resulted from laser damage” value in experiment [5] (25 mg/kg/d oral, day 7 and day 28) is “ameliorated”. Moreover, in experiment [6] (0.5% and 1%), the “VEGF level in diabetic eyes, in words” value is listed as “markedly suppressed”. Besides, the “VEGF level (Western Blot), DR animals as 100%” value in experiment [6] (0.5% eye drops tid 6 weeks) worked out at 77%. Moreover, the “VEGF level (Western Blot), DR rats as 100%” value in experiment [6] (1.0% eye drops tid 6 weeks) amounted to 50%. The “enhancement of H2O2-induced injury” value in experiment [7] (200 μM H2O2) came to 41%; in experiment [7] (400 μM H2O2), 10%.
